Experimental data published in patent US8575103B2, “Peptides and methods for inhibiting G alpha protein signaling” (The Board of Trustees of the University of Illinois, priority 2009, dated 2013).
Entries after “also recorded” stand apart in the source; their conditions may differ. Where no end group is shown, it is not given here.

Legend:
α11bβ3 integrin [1] = assay: platelet α11bβ3 integrin activation, FITC-PAC1 antibody binding by flow cytometry; format: cell-based, human; details: 150 μM peptide, 0.5 μM U46619, FITC-PAC1, compared to 500 μM Random Peptide
Protocol: The platelet count in human PRP was adjusted to 1×10^6 platelets/ml. The platelets were then labeled with FITC-conjugated PAC1 antibody against activated α11bβ3 integrin, and the samples were analyzed by flow cytometry in a Beckman Coulter CyAn II Flow Cytometer. Trace (a) depicts resting platelets labeled with FITC-PAC-1 antibody. Trace (b) depicts platelets stimulated with 0.5 μM U46619 and labeled with FITC-PAC1 antibody. Trace (c) depicts platelets incubated with 500 μM of the Random Peptide (SEQ ID NO:9), followed by 0.5 μM U46619 stimulation and FITC-PAC1 labeling. Trace (d) depicts platelets incubated with 150 μM of the G13SR2pep, followed by 0.5 μM U46619 stimulation and FITC-PAC1 labeling.
Subsequent experiments examined the effect of G13SR2pep, (SEQ ID NO:5) on human platelet α11bβ3 integrin activation as measured by FITC-PAC-1 antibody binding.

kindlin-3 = molecular target: T1, kindlin-3 (Homo sapiens, UniProt Q86UX7); assay: peptide affinity column with solubilized human platelets, western blot for kindlin-3; format: binding; details: immunoblot, kindlin 3 (72 kD)
T1 construct: also purified whole talin (220 kD), the talin head domain (47 kD) and kindlin 3 (72 kD); endogenous in cells; host or cells: solubilized human platelets
Text: (§1) On this basis, subsequent experiments examined whether G13SR2pep peptide (SEQ ID NO:5) does indeed directly interact with α11bβ3 and/or one of its associated proteins in human platelets. In this respect, platelet α11bβ3 integrin is known to exist in a complex with two cytoplasmic proteins, i.e., talin and kindlin-3 (Tadokoro, et al. (2003) Science 302:103-6; Moser, et al. (2008) Nature Med. 14:325-30). To determine whether G13SR2pep, (SEQ ID NO:5) interacts with any of these proteins (or with the entire α11bβ3, talin, kindlin-3 complex), peptide affinity columns using G13SR2pep (SEQ ID NO:5) were employed. The affinity purified protein(s) from solubilized human platelets that specifically bound to the G13SR2pep peptide were eluted, and analyzed by western blot for α11bβ3 integrin, talin and kindlin-3. In similar experiments, the eluates from a peptide column using the G13SR2-Random Peptide (SEQ ID NO:9) were also analyzed. Immunoblot analysis with the α11bβ3 antibodies (Abcam) detected two bands, one at 130 kD and the other at 115 kD in solubilized human platelets as well as in the elution fraction obtained from the G13SR2pep (SEQ ID NO:5) affinity column. […] This was supported by similar experiments using talin antibodies and the kindlin 3 antibody (Abcam).

human platelets = assay: human platelet aggregation in platelet rich plasma (PRP); format: cell-based; details: PRP
CD1 mice = assay: bleeding time in mice after intravenous administration; format: in vivo; details: 100 μl of 3.7 mM intravenously via tail vein, tail cut five minutes after administration
Protocol: Briefly, CD1 mice (25 grams) were anesthetized with sodium pentobarbital, and either 100 μl of vehicle or 100 μl of a vehicle solution containing 3.7 mM of each peptide or aspirin was administered intravenously via the tail vein. Five minutes following administration, the tail was cut 0.5 cm from the tip and immersed in PBS buffer (pH 7.4; 37EC). Cessation of bleeding was observed visually and the total bleeding time was recorded.

calcium mobilization = assay: calcium flux / calcium mobilization in platelets; format: cell-based, human; details: 250 μM peptide; induced by TRAP1 (10 μM), U46619 (0.5 μM) or ADP (10 μM)
Protocol: (§2) To further investigate the mechanism(s) by which G13SR2pep (SEQ ID NO:5) inhibited α11bβ3 integrin activation, the effect of G13SR2pep on calcium flux, RhoA activation, Src activation and changes in cAMP levels was determined using conventional assays.

RhoA = RhoA activation in platelets; format: cell-based, human; details: 250 μM peptide; induced by TRAP1 (10 μM), U46619 (0.5 μM) or ADP (10 μM)
Protocol: as §2

cAMP levels = cAMP levels in human platelet-rich plasma; format: cell-based; details: 250 μM peptide
Protocol: as §2

talin = molecular target: T2, talin (Homo sapiens, UniProt Q9Y490); assay: peptide affinity column with solubilized human platelets, western blot for talin; format: binding
T2 construct: also purified whole talin (220 kD), the talin head domain (47 kD) and kindlin 3 (72 kD); endogenous in cells; host or cells: solubilized human platelets
Text: as §1
Thus, the binding of G13SR2pep (SEQ ID NO:5) to the talin head domain serves as the basis for the ability of G13SR2pep to inhibit α11bβ3 integrin activation and platelet aggregation. As such, peptides or specific compounds fashioned to mimic or modify the switch region interaction with talin, α11bβ3 integrin or other α11bβ3 integrin-associated proteins would have profound effects on thrombosis and other integrin-linked disease processes.

α11bβ3 integrin [2] = molecular target: T3, α11bβ3 integrin (Homo sapiens, UniProt P05106+P08514+Q9Y490); assay: peptide affinity column with solubilized human platelets, western blot for α11bβ3; format: binding; details: immunoblot, bands at 130 kD and 115 kD
T3 construct: detected two bands, one at 130 kD and the other at 115 kD in solubilized human platelets; endogenous in cells; host or cells: solubilized human platelets
Text: as §1

Src = Src activation in platelets; format: cell-based, human; details: 250 μM peptide; induced by TRAP1 (10 μM), U46619 (0.5 μM) or ADP (10 μM)
Protocol: as §2

T2 sequence (Q9Y490 1-433): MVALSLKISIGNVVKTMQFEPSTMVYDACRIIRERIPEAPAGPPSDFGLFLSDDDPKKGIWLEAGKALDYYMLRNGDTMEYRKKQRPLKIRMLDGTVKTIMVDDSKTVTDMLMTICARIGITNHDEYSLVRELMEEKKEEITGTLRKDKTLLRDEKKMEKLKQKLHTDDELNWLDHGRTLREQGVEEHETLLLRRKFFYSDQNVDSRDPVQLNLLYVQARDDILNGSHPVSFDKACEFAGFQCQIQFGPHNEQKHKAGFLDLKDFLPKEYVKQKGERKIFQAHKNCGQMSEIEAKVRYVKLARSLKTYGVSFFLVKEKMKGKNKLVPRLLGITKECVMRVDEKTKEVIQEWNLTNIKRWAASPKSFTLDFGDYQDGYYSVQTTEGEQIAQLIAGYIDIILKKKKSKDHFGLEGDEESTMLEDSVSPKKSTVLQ

VGGQRSERKRWFECFDS [G13SR2pep, non-myristoylated G13 Switch Region 2 peptide]
inhibition of U46619-mediated activation of α11bβ3 integrin (α11bβ3 integrin [1]): dramatically inhibited
kindlin 3 in affinity column eluate (kindlin-3): purified
platelet aggregation induced by the divalent cation ionophore A23187 (human platelets; 150 μM peptide, 10 μM A23187): capable of blocking
inhibition of human platelet aggregation stimulated by U46619 (human platelets; 75-150 μM G13SR2pep (Random Peptide 500 μM), 0.5 μM U46619): dose-dependent inhibition
inhibition of human platelet aggregation stimulated by ADP (human platelets; 75-150 μM G13SR2pep (Random Peptide 500 μM), 10 μM ADP): dose-dependent inhibition
inhibition of human platelet aggregation stimulated by TRAP1 (human platelets; 75-150 μM G13SR2pep (Random Peptide 500 μM), 15 μM TRAP1): dose-dependent inhibition
inhibition of human platelet aggregation stimulated by TRAP4 (human platelets; 75-150 μM G13SR2pep (Random Peptide 500 μM), 50 μM TRAP4): dose-dependent inhibition
bleeding time (CD1 mice): increased bleeding times; also recorded: substantially increases
calcium mobilization (calcium mobilization): did not alter
RhoA activation (RhoA): did not alter
cAMP levels (cAMP levels): did not alter
talin in affinity column eluate (talin; solubilized human platelets, immunoblot, whole talin (220 kD), talin head domain (47 kD)): purified
binding to talin head domain (talin; α11bβ3-talin-kindlin 3 complex dissociated, affinity column eluates): binding partner
α11bβ3 in affinity column eluate (interaction with peptide) (α11bβ3 integrin [2]): directly interacts
Src activation (Src): did not alter
